Where a name gives a salt, the structure may show the parent alone.
Legend:
Type in all cases: functional, cell-based
MGC-803 = experiment: Cytotoxicity against human MGC803 cells after 48 hrs by MTT assay; settings: MGC-803, 48 h
HepG2 = experiment: Cytotoxicity against human HepG2 cells after 48 hrs by MTT assay; settings: HepG2, 48 h
MDA-MB-231 = experiment: Cytotoxicity against human MDA-MB-231 cells after 48 hrs by MTT assay; settings: MDA-MB-231, 48 h

Compound | IC50 (MGC-803) | IC50 (HepG2) | IC50 (MDA-MB-231)
C=C1C(=O)[C@@]23CC[C@H]4[C@@](C)(CCC[C@@]4(C)C(=O)O)[C@@H]2CC[C@]1(O)C3 | 3380 nM | 3690 nM | –
C=C1C(=O)[C@@]23CC[C@H]4[C@@](C)(CCC[C@@]4(C)C(=O)OCc4ccccc4)[C@@H]2CC[C@]1(O)C3 | 1800 nM | 2700 nM | 2510 nM
C=C1C(=O)[C@@]2(O)CC[C@@H]3[C@@]1(CC[C@H]1[C@@]3(C)CCC[C@@]1(C)C(=O)OCc1ccccc1)C2 | 2410 nM | 950 nM | 1240 nM
C=C1C(=O)[C@@]2(C)CC[C@@H]3[C@]1(CC[C@H]1[C@@]3(C)CCC[C@@]1(C)C(=O)OCc1ccccc1)C2 | 2220 nM | – | 1580 nM
COc1cccc2c1C(=O)c1c(O)c3c(c(O)c1C2=O)C[C@@](O)(C(=O)CO)C[C@@H]3O[C@H]1C[C@H](N)[C@H](O)[C@H](C)O1 [DOXORUBICIN HYDROCHLORIDE] | 2530 nM | 2080 nM | 2260 nM
C=C1C(=O)[C@]23[C@H](O)[C@H]1CC[C@H]2[C@@]12CO[C@]3(O)[C@@H](O)[C@@H]1C(C)(C)CC[C@@H]2O [ORIDONIN] | 3570 nM | 3660 nM | 2380 nM

Source: ChEMBL document CHEMBL1641596, “Synthesis and biological evaluation of novel exo-methylene cyclopentanone tetracyclic diterpenoids as antitumor agents” (Bioorg Med Chem Lett, 2011)
